Assay results from patent publication US20130060013A1, “Compounds useful for treating neurodegenerative disorders” (SATORI PHARMACEUTICALS, INC., priority 2011, published 2013).

Columns and labels:
Format in all cases: cell-based
Conditions in all cases: Homo sapiens, compound 5 hours at 37° C., 1% DMSO, percent vehicle fit to 4 parameter curve
[1] = test system: Aβ-40; assay: Aβ-40 level in conditioned media of 2B7 cells (MSD 3-PLEX ELISA)
[2] = test system: Aβ-42; assay: Aβ-42 level in conditioned media of 2B7 cells (MSD 3-PLEX ELISA)
Procedure, shortened: (§1)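 2B7 cells at confluence were exposed to compound dilutions in medium (1% DMSO final) for 5 h at 37 °C. Conditioned medium, diluted 1:1 in blocking buffer, was assayed by MSD 3-plex electrochemiluminescence ELISA, and levels were read from a seven-point standard curve. IC50 came from a 4-parameter fit of percent-of-vehicle values.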

[3] = test system: Aβ-38; assay: Aβ-38 level in conditioned media of 2B7 cells (MSD 3-PLEX ELISA)
Procedure, shortened: as §1

CCO[C@@H]([C@H]1C[C@@H](C)[C@H]2[C@H](O1)[C@H](O)[C@@]1(C)[C@@H]3CC[C@H]4C(C)(C)[C@@H](O[C@H]5CN(CC(=O)NCCOC)CCO5)CCC45C[C@@]35CC[C@]21C)C(C)(C)O (stereo partly drawn)
IC50 [1]: 1000 to 10000 nM
IC50 [2]: < 1000 nM
IC50 [3]: 1000 to 10000 nM

CCO[C@@H]([C@H]1C[C@@H](C)[C@H]2[C@H](O1)[C@H](O)[C@@]1(C)[C@@H]3CC[C@H]4C(C)(C)[C@@H](OC(=O)[C@H]5COCCN5CCOC)CCC45C[C@@]35CC[C@]21C)C(C)(C)O (stereo partly drawn)
IC50 [1]: 1000 to 10000 nM
IC50 [2]: < 1000 nM
IC50 [3]: < 1000 nM

CCO[C@@H]([C@H]1C[C@@H](C)[C@H]2[C@H](O1)[C@H](O)[C@@]1(C)[C@@H]3CC[C@H]4C(C)(C)[C@@H](OC(=O)C5CCN5)CCC45C[C@@]35CC[C@]21C)C(C)(C)O (stereo partly drawn)
IC50 [1]: 1000 to 10000 nM
IC50 [2]: < 1000 nM
IC50 [3]: < 1000 nM

CCO[C@@H]([C@H]1C[C@@H](C)[C@H]2[C@H](O1)[C@H](O)[C@@]1(C)[C@@H]3CC[C@H]4C(C)(C)[C@@H](OC(=O)[C@H]5COCCN5)CCC45C[C@@]35CC[C@]21C)C(C)(C)O (stereo partly drawn)
IC50 [1]: 1000 to 10000 nM
IC50 [2]: < 1000 nM
IC50 [3]: < 1000 nM

CCO[C@@H]([C@H]1C[C@@H](C)[C@H]2[C@H](O1)[C@H](O)[C@@]1(C)[C@@H]3CC[C@H]4C(C)(C)[C@@H](OC(=O)[C@H]5CCCN5)CCC45C[C@@]35CC[C@]21C)C(C)(C)O (stereo partly drawn)
IC50 [1]: 1000 to 10000 nM
IC50 [2]: < 1000 nM
IC50 [3]: < 1000 nM
